{"source": "patent US20050181474A1", "about": "“Transport peptides and uses therefor” (priority 2002, published 2005)", "key": {"[1]": {"test_system": "parenchyma of the heart (myocardium)", "experiment": "Uptake of rhodamine-labeled peptide into heart after coronary infusion", "assay_type": "in vivo, mouse", "conditions": "single pass infusion through the coronary circulation, FIGS. 4A-C", "excerpt": "In experiments designed to test the ability of these peptides to cross the endothelium and enter cells in vivo, synthetic transport peptides labeled with the fluorescent marker rhodamine were infused into the coronary circulation of mice. […] Peptides selected for internalization were capable of internalizing into the myocardium efficiently.\nOne such transport peptide is RRGRRRGR."}, "[2]": {"test_system": "endothelial cells (HUVEC cells)", "experiment": "Internalization of rhodamine-labeled peptide into endothelial cells", "assay_type": "cell-based, human", "conditions": "FIG. 3A", "excerpt": "(§1) To test the properties of the peptides defined, small scale synthesis of these peptides was ordered, labeled with rhodamine for fluorescent localization, from the Keck facility at Yale University. They were then used in in vitro and in vivo experiments to investigate the ability of these peptides to enter cells and tissues.\n(§2) FIGS. 3A and 3B show pictures depicting highly efficient internalization of these peptides into cells in culture. One such transport peptide is RRGRRRGR."}, "[3]": {"test_system": "rat aortic and adult human smooth muscle cells", "experiment": "Internalization of rhodamine-labeled peptide into smooth muscle cells", "assay_type": "cell-based", "conditions": "FIG. 3B", "excerpt": "as §1, §2"}, "skin": {"test_system": "skin", "experiment": "Homing of peptide after intravenous delivery in vivo", "set-up": "species or system mouse", "procedure": "(§3) Another method used was to perfuse murine hearts ex-vivo on a Langendorf apparatus, administer the phage through the coronary circulation, and then rescue the phage that entered the myocardium. In vivo experiments were also done in which phage was injected into the general circulation of a mouse, any phage binding to the vasculature was removed by treatment with an enzyme solution, and then phage that had entered tissue parenchyma were rescued and enriched."}, "[4]": {"test_system": "heart, skeletal muscle, skin, brain", "experiment": "In vivo translocation of peptide-displaying phage into tissue parenchyma", "set-up": "species or system mouse", "procedure": "as §3"}}, "data": [{"substance": "RRGRRRGR (Transport peptide)", "values": [{"measurement": "uptake into the parenchyma of the heart", "setting": "[1]", "value": "efficient uptake"}, {"measurement": "uptake (internalization) into endothelial cells", "setting": "[2]", "value": "efficient uptake"}, {"measurement": "uptake (internalization) into smooth muscle cells", "setting": "[3]", "value": "efficient uptake"}]}, {"substance": "GSRHPPL (Transport peptide)", "values": [{"measurement": "homing (tissue targeting)", "setting": "skin", "value": "appears to significantly target skin"}]}, {"substance": "LLAVPAA (Transport peptide)", "values": [{"measurement": "crossing the blood brain barrier and entry into the brain", "setting": "[4]", "value": "appears capable of crossing the blood brain barrier and entry into the brain"}, {"measurement": "translocating phage into tissues", "setting": "[4]; phage displaying the peptide, heart, skeletal muscle, skin", "value": "capable of translocating phage into heart, skeletal muscle, skin"}]}]}
